Laboratory results taken from patent EP1379634B1 (THE UNIVERSITY OF GEORGIA RESEARCH FOUNDATION, INC., priority 2001, dated 2002).
Residues, ends and D or L forms follow the SMILES beside them. *: point of attachment. Cbz = O=C(OCc1ccccc1)*; CH2F = FC*

Assays:
[1] = test system: purified Taenia solium cysteine protease; experiment: Protease inactivator inhibition assay against cocktail, EC100 and Ki (Step VII); assay type: biochemical
Text: Once the protease inactivators were synthesized in the organic laboratory, they were to be tested for the lowest efficacious concentrations at which they induced 100% inhibition of the target protease (EC100). The top percent cocktail that was employed in the final vehicle selection step of Step III was employed as the source of competition for the inhibitors. In this case, this was the 7.9% cocktail that was comprised of Z-FR-AFC, Z-FAR-AFC, Z-AP-AFC, Z-AAK-AFC, and Z-VLR-AFC. The final result would be a ranking of transition state candidate protease inactivators with a high ranking directly correlating to a low EC100 value. The following steps describe the assay: • Step A: Initial Screening. To set up the test control, each protease inactivator was first incubated with the 5% cocktail (which provided the final differentiation of vehicles in Step III). To begin with, the protease inactivator was incubated at a concentration of 3 X 10^-9M in 500 ul of assay buffer (0.2 M Citrate, pH 4.9, supplemented with 10mM L-cysteine). This concentration was determined by a series of inhibitor dilutions to be the best inhibitor concentration at which a differentiation in inhibitor potential could be noted. Next, a concentration equal to 4 X 10^-5M for each of the individual cocktail components, was added to the mix. The components were allowed to equilibrate for a period of 30 minutes. Finally, active purified enzyme was added to the tubes at a concentration which was always at least 50 times less than the concentration of the lowest concentration in the mix (so as to provide saturating conditions.) This concentration varied from purification to purification, and the amount that was added depended upon the yield and specific activity of the purified protease. Positive controls were set up similarly as described for test controls, except that solvent was added in substitution for the protease inactivator (in a volume equal to the […] volume addition). All of the protease inactivators could be dissolved in dimethylsulfoxide (DMSO), and therefore, this was the solvent of choice. Negative controls were set up by adding the protease inactivator and the cocktail substrates in a tube, without the protease. All potential non-proteolytic induced liberation of AFC was therefore controlled for in this tube. All controls were set up in triplicate, and experiments repeated a minimum of five times. The assays were incubated at 37°C, overnight. Percent inhibition was calculated as: %Inhibition = ((AFC positive for "SI"−AFC negative for "SI")−(AFC test−AFC negative for "SI"))/(AFC positive for "SI"−AFC negative for "SI") × 100 [formula] • Step B: Inhibitor Dilution Studies and formation of a ranked list of protease inactivators based upon EC100 values. […] Because of this, a dilution study was required in order to determine a viable ranking. Thus, the concentration of each of the protease inactivators was lowered with a dose response setup until the most efficacious concentration for 100% inhibition (EC100) could be determined. The inhibitors had to be diluted to nanomolar levels in order to establish a differentiable EC100 pattern. The final result of the assay was a ranked candidate list of protease inactivators. A lower EC100 was attributable to a higher ranking and vice-versa. • Step C: Determination of Inhibitor Ki and mode of inhibition, and re-ranking of EC100 list with inhibitor Ki. Ki of each of the top ranked protease inactivators, based upon low EC100 values, was assessed next for the top 5 EC100 inhibitors.
In order to determine Ki, all of the high Vmax cocktail substrates were employed for Ki determination (since Ki of the inhibitor for the enzyme is the same regardless of the substrate). To insure the highest accuracy, Ki was to be determined upon a minimum of at least three of the high Kcat substrates. Nonlinear fitting and the Dixon plot were both employed to determine Ki of the top ranked protease inactivators. […]

Cathepsin D = Cathepsin D (Homo sapiens, UniProt P07339); experiment: Selectivity test (Steps VI and IX), Cathepsin D; assay type: biochemical; conditions: vehicle 4 X 10^-5 M; pH 7.1, substrate Z-RGFFP-AFC; 40 µM
Protocol: In order to perform the assay, the vehicle (for Step VI) or inhibitor (for Step IX) were incubated with the appropriate substrate in the correct assay buffer and allowed to equilibrate. Subsequently, the protease was added, and the assay was allowed to incubate for an appropriate time. The concentrations used in this experiment were as follows: Vehicle was set up at 4 X 10^-5 M in final assay buffer; Inhibitor was set up at 3 X 10^-10 M in the final assay buffer. Preferably the dosages employed should be the minimal amount of vehicle or inhibitor necessary to induce inhibition. […] Substrates were set up based upon the preferred substrate for cleavage of the particular enzyme.
Positive controls were set up similarly as described for test controls, except that a solvent blank was added in substitution for the inhibitor or vehicle (in a volume equal to the volume of inhibitor or vehicle addition). All of the inhibitors and vehicles could be dissolved in dimethylsulfoxide (DMSO), and therefore, this was the solvent of choice. Negative controls were set up by adding the inhibitor or vehicle and the preferred substrates in a tube without the protease. […]
Percent inhibition was calculated as: %Inhibition = ((AFC positive for "SI"−AFC negative for "SI")−(AFC test−AFC negative for "SI"))/(AFC positive for "SI"−AFC negative for "SI") × 100 [formula] […]

Sequence of Cathepsin D (P07339 65-412): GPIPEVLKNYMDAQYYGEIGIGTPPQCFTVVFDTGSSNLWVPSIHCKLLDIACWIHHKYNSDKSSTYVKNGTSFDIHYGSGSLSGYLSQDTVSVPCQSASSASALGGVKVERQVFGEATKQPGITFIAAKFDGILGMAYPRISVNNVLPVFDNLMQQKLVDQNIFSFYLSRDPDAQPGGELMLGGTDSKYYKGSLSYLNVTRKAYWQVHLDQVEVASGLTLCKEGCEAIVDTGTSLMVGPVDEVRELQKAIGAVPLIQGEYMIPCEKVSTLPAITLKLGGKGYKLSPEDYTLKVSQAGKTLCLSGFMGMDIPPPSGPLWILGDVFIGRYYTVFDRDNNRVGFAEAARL

Compound | % Inhibition of T. solium CP in vitro ([1]; concentration not stated in Table 4) [%] | ranking by EC100 ([1]; dilution study, nanomolar levels) | % inhibition (Cathepsin D) [%]
CC(C)C[C@H](NC(=O)OCc1ccccc1)C(=O)N[C@@H](CC(C)C)C(=O)N[C@@H](Cc1ccc(O)cc1)C(=O)CF [Z-LLY-FMK, Z-Leu-Leu-Tyr-FMK] (Cbz-Leu-Leu-Tyr-CH2F) | 97 | top inhibitors | –
Mu-Leu-Tyr-AFC [Mu-LY-AFC] | – | – | 0
